Measurements as given in publication PMC12373499 (Nature Metabolism, 2025).
Where “and” joins values, the source holds several entries; their conditions need not be identical. Equal values may be shown once.

T1: mGLP1R (Mus musculus, UniProt O35659)
T1 construct: expressed in transfected cells; host or cells: AD293 cells, transient transfection (Lipofectamine 2000)
T1 sequence (O35659 22-463): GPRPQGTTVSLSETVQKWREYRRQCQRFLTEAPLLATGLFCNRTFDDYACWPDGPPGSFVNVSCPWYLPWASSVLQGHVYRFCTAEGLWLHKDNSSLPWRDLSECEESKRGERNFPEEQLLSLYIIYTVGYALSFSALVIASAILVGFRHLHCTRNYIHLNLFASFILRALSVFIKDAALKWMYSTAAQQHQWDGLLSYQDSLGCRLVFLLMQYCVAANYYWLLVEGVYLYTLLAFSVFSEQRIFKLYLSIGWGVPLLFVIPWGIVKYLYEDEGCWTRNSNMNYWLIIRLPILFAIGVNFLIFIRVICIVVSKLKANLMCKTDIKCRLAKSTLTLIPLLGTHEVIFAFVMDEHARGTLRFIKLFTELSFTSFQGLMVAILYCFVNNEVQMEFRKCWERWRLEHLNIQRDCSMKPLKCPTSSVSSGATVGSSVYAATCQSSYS

T2: hGIPR (Homo sapiens, UniProt P48546)
T2 construct: expressed in transfected cells; host or cells: AD293 cells, transient transfection (Lipofectamine 2000)
T2 sequence (P48546 22-466): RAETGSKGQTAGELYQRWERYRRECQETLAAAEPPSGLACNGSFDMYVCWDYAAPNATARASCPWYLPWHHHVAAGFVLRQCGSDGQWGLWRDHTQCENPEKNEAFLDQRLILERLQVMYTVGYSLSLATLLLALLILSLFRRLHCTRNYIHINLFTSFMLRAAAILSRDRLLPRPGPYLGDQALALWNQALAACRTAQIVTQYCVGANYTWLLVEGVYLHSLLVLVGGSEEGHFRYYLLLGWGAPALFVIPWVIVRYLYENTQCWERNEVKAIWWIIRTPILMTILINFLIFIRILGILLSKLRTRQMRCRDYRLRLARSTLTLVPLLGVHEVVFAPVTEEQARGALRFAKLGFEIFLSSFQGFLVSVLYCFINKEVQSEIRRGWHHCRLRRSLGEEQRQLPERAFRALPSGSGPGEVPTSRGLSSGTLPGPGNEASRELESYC

T3: mGIPR (Mus musculus, UniProt Q0P543)
T3 construct: expressed in transfected cells; host or cells: AD293 cells, transient transfection (Lipofectamine 2000)
T3 sequence (Q0P543 19-460): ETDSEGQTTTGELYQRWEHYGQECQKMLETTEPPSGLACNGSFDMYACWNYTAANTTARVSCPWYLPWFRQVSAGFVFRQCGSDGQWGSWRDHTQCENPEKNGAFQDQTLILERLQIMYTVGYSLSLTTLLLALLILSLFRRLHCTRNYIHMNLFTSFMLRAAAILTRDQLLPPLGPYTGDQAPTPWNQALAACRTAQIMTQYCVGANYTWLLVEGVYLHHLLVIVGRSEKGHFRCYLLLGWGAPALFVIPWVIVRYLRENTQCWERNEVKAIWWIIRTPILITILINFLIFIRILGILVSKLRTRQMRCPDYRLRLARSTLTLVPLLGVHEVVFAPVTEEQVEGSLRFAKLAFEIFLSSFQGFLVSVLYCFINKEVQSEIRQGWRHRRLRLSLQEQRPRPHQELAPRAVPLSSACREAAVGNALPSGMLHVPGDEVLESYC

T4: GIP(1-42) (Homo sapiens, UniProt P09681)
T4 chain: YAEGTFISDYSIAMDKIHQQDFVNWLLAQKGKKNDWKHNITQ


Legend:
mGLP1R = target: T1, mGLP1R; assay: HTRF cAMP assay in transiently transfected AD293 cells; assay type: cell-based; settings: 30 min 37 °C, n = 4 independent repeats, Extended Data Table 1, read-out: mGLP1R EC50 best-fit
hGIPR = target: T2, hGIPR; assay: as above; assay type: cell-based; settings: 30 min 37 °C, n = 4 independent repeats, Extended Data Table 1, read-out: hGIPR EC50 best-fit
Experimental: (§1) AD293 cells (RRID:CVCL_9804) were transiently transfected 24 h before the assay in six-well plates with plasmids encoding wild-type hGLP1R, mGLP1R, hGIPR or mGIPR using Lipofectamine 2000. AD293 cells were authenticated at source using STR profiling. Cells were detached and treated with a range of agonist concentrations in serum-free DMEM + 0.1% BSA for 30 min at 37 °C in 96-well plates, followed by the addition of lysis buffer 2 (Cisbio) at a 1:2 ratio. Lysates were further diluted 1:10 to avoid spectral interference from the higher concentrations of fluorescent ligands in the HTRF assay, and the concentration of cAMP was determined after the addition of cAMP Dynamic detection reagents (Cisbio).

mGIPR = target: T3, mGIPR; assay: as above; assay type: cell-based; settings: cAMP, AD293 cells, 30 min 37 °C, n = 4 independent repeats; Extended Data Table 1; read-out: mGIPR EC50 best-fit
Experimental: as §1

GIP(1-42) = target: T4, GIP(1-42); assay: competition

| Ki (GIP(1-42)) | Molecule | EC50 (mGLP1R) | EC50 (hGIPR) | EC50 (mGIPR) |
| --- | --- | --- | --- | --- |
| – | CC[C@H](C)[C@H](NC(=O)[C@H](CC(C)C)NC(=O)[C@H](Cc1c[nH]c2ccccc12)NC(=O)[C@H](CCC(N)=O)NC(=O)[C@@H](NC(=O)[C@H](Cc1ccccc1)NC(=O)[C@H](C)NC(=O)[C@H](CCCCNC(=O)COCCOCCNC(=O)COCCOCCNC(=O)CC[C@H](NC(=O)CCCCCCCCCCCCCCCCCCC(=O)O)C(=O)O)NC(=O)[C@H](CCC(N)=O)NC(=O)[C@H](C)NC(=O)[C@@H](NC(=O)[C@H](CCCCN)NC(=O)[C@H](CC(=O)O)NC(=O)[C@H](CC(C)C)NC(=O)C(C)(C)NC(=O)[C@@H](NC(=O)[C@H](CO)NC(=O)[C@H](Cc1ccc(O)cc1)NC(=O)[C@H](CC(=O)O)NC(=O)[C@H](CO)NC(=O)[C@@H](NC(=O)[C@H](Cc1ccccc1)NC(=O)[C@@H](NC(=O)CNC(=O)[C@H](CCC(=O)O)NC(=O)C(C)(C)NC(=O)[C@@H](N)Cc1ccc(O)cc1)[C@@H](C)O)[C@@H](C)O)[C@@H](C)CC)[C@@H](C)CC)C(C)C)C(=O)N[C@@H](C)C(=O)NCC(=O)NCC(=O)N1CCC[C@H]1C(=O)N[C@@H](CO)C(=O)N[C@@H](CO)C(=O)NCC(=O)N[C@@H](C)C(=O)N1CCC[C@H]1C(=O)N1CCC[C@H]1C(=O)N1CCC[C@H]1C(=O)N[C@@H](CO)C(N)=O [tirzepatide] | 29.4 nM | 0.641 nM | 112 nM |
| 13.9 nM and 9.38 nM | GIPR (protein) RAETGSKGQTAGELYQRWERYRRECQETLAAAEPPSGLACNGSFDMYVCWDYAAPNATARASCPWYLPWHHHVAAGFVLRQCGSDGQWGLWRDHTQCENPEKNEAFLDQRLILERLQVMYTVGYSLSLATLLLALLILSLFRRLHCTRNYIHINLFTSFMLRAAAILSRDRLLPRPGPYLGDQALALWNQALAACRTAQIVTQYCVGANYTWLLVEGVYLHSLLVLVGGSEEGHFRYYLLLGWGAPALFVIPWVIVRYLYENTQCWERNEVKAIWWIIRTPILMTILINFLIFIRILGILLSKLRTRQMRCRDYRLRLARSTLTLVPLLGVHEVVFAPVTEEQARGALRFAKLGFEIFLSSFQGFLVSVLYCFINKEVQSEIRRGWHHCRLRRSLGEEQRQLPERAFRALPSGSGPGEVPTSRGLSSGTLPGPGNEASRELESYC | – | – | – |
